These results are taken from PubChem BioAssay AID2060603 (Molecular Pharmacology Branch, DTP, NCI, 2025).

The subject of the assay is 422866-222-R5-J1-PDC spheroid viability. The assay can be described thus: Anticancer human tumor 422866-222-R5-J1-PDC patient-derived pancreatic adenocarcinoma cell line growth inhibition [CLK]. As to conditions: spheroids with HUVEC and MSC; for viability, T/C: stronger effect = lower value. The source says:
A high-throughput screen of multi-cell type tumor spheroids was designed to identify active combinations of […] and targeted small molecules. Complex spheroids include a stromal component modeled by human endothelial cells (HUVEC) and fibroblasts modeled by human mesenchymal stem cells (MSCs). The concentration ranges selected for each drug and investigational agent were based upon clinically achievable concentrations if the clinical Cmax of the agent was known.
Compounds. The drugs and investigational agents: cirtuvivint (SM08502; NSC835563), CC-671 (NSC850746), vemurafenib (NSC761431), tapotoclax (NSC804041), sotorasib (NSC818433), adagrasib (NSC831453), MRTX-1133 (NSC836407), BAY2416964 (NSC825713), copanlisib (NSC816437), inavolisib (NSC800729), abemaciclib (NSC768073), osimertinib (NSC779217), entinostat (NSC756642), eltanexor (KPT-8602, NSC794443), venetoclax (NSC766270), ceralasertib (NSC777638), bortezomib (NSC756655), olaparib (NSC753686), talazoparib (NSC767125), alisertib (NSC759677), peposertib (NSC802822), gemcitabine (NSC613327), 5-fluorouracil (NSC19893), SN-38 (NSC673596), oxaliplatin (NSC266046), paclitaxel (NSC125973), and doxorubicin (NSC123127), were obtained from the National Cancer Institute (NCI) Developmental Therapeutics Program Chemical Repository. The FDA-approved anticancer drug set is available from the Developmental Therapeutics Program at https://dtp.cancer.gov/organization/dscb/obtaining/available plates.htm. […] The stock solutions were prepared in dimethyl sulfoxide (DMSO, Sigma-Aldrich, St. Louis, MO, cat. D2650), except for the platinum complexes which were prepared in saline (Quality Biological, Gaithersburg, MD, cat. 114-055-101), at 800-fold the tested concentration and stored at -70 degrees C prior to their use. All drugs and investigational agents were tested over a range starting from a high concentration at or near the clinical Cmax and decreasing in half-log increments. If the clinical Cmax for an agent had not been determined, the highest concentration tested was 10 microM.
Cell Culture. All cells were maintained in an incubator at 37 degrees C and 5% CO2 with 95% humidity. The PDC lines were cultured according to standard operating procedures established by the NCI PDMR. Briefly, all PDCs were thawed and cultured in Matrigel-coated flasks prepared with a working solution of 1X Ham's F-12 nutrient mix, without supplementation (Invitrogen, Waltham, MA, cat. 11765054), 100 U/mL penicillin-streptomycin (Invitrogen, cat. 15140122), and 2.5% Matrigel (Corning Inc., Corning, NY, cat. 354248) for the first three passages. The 947758-054-R-J2-PDC line was cultured in 6B/Colon 1A media, which includes advanced DMEM/F-12 (Thermo Fisher Scientific, cat. 12634028), 10 mM HEPES (Thermo Fisher Scientific, cat. 15630080), 1X GlutaMAX supplement (Thermo Fisher Scientific, cat. 35050061), 0.1 mg/mL primocin (InvivoGen, cat. ant-pm-2), 10% defined fetal bovine serum, heat inactivated (HyClone Laboratories Inc., cat. SH30070.03HI), 1.25 mM N-Acetyl-L-cysteine (Sigma-Aldrich, cat. A9165), 10 mM nicotinamide (Sigma-Aldrich, cat. N0636), 1X B-27 supplement (Thermo Fisher Scientific, cat. 17504044), 1X N-2 supplement (Thermo Fisher Scientific, cat. 17502048), and 10 microM Y-27632 dihydrochloride (Tocris Bioscience, cat. 1254). The 876862-298-R-J1-PDC was cultured in 6E media, which includes all 6B/Colon 1A media components plus 50% L-WRN conditioned media (ATCC, cat. CRL-3276), 50 ng/mL recombinant human EGF recombinant protein (hEGF; Thermo Fisher Scientific, cat. PHG0311), 10 ng/mL recombinant human fibroblast growth factor 10 (hGFG-10; PeproTech, cat. 100-26), 1 ng/mL recombinant human fibroblast growth factor 2 (hFGF-2; PeproTech, cat. 100-18B), and 1 µM prostaglandin E2 (PGE2; Tocris, cat. 2296). The 227483-062-R1-J1-PDC line was cultured in Panc media, containing all 6E components except hFGF-2, with the addition of 500 nM SB-431542 (Selleckchem, cat. S1067) and 10 nM gastrin (Tocris, cat. 3006). […]

Several values for one entry are separate records, joined by “and”; a condition that tells them apart may be missing. Identical values can stand only once. Where only a bound is given, the exact number is not on record here.
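Further: spheroids exposed to agents for seven days before readout.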

For the molecule `CC(=O)O[C@H]1C(=O)[C@@]2(C)[C@H]([C@H](OC(=O)c3ccccc3)[C@]3(O)C[C@H](OC(=O)[C@H](O)[C@@H](NC(=O)c4ccccc4)c4ccccc4)C(C)=C1C3(C)C)[C@]1(OC(C)=O)CO[C@@H]1C[C@@H]2O`, the viability, T/C (compound 0.0316 µM) was 68% and 69.8%; the viability, T/C (compound 0.1 µM) is 69.3% and 72.6%; the viability, T/C (compound 0.316 µM) is 63.8% and 66.3%; the viability, T/C (compound 1 µM) is 68.3% and 75.5%; the viability, T/C (compound 3.16 µM) is 72.2% and 76%; the viability, T/C (compound 10 µM) was 85.7% and 81.6%. For the same molecule, the IC50 (curve of compound) is above 10000 nM.
Regarding `CC1(C)CCC(CN2CCN(c3ccc(C(=O)NS(=O)(=O)c4ccc(NCC5CCOCC5)c([N+](=O)[O-])c4)c(Oc4cnc5[nH]ccc5c4)c3)CC2)=C(c2ccc(Cl)cc2)C1`, the viability, T/C is, setting by setting: (compound 0.0316 µM) 89.7% and 94.5%; (compound 0.1 µM) 95.6% and 97.1%; (compound 0.316 µM) 103% and 77.2%; (compound 1 µM) 105% and 92.1%; (compound 3.16 µM) 99.1% and 120%; (compound 10 µM) 69.8% and 69%. The IC50 (curve of compound) was above 10000 nM.
As for `CC1COCCN1c1cc(C2(S(C)(=N)=O)CC2)nc(-c2ccnc3[nH]ccc23)n1` (stereo not given), the viability, T/C is, setting by setting: (compound 0.0316 µM) 94.6% and 88.6%; (compound 0.1 µM) 92.4% and 94.7%; (compound 0.316 µM) 97.3% and 95.7%; (compound 1 µM) 94.2% and 94.3%; (compound 3.16 µM) 66.9% and 58.5%; (compound 10 µM) 54.5% and 47.8%. Besides, under “curve of compound”, the IC50 is > 10000 nM and 7890 nM.
Turning to `CN1CCN(c2cc(C(=O)Nc3cc4cc(-c5cnn(C)c5)ccc4cn3)ccn2)CC1`, the viability, T/C (compound 1 µM) is 25.8% [middle of 12 runs]; the viability, T/C (compound 3.16 µM) was 11% [middle of 12 runs]; the viability, T/C (compound 10 µM) is 2.14% [middle of 12 runs]. Also, the IC50 (compound alone, run of 08/14/2023) was 650 nM [middle of 12 runs].
In the case of `COc1ccc([C@@H](O)c2cc(-c3ncnc4cc(N5CCOCC5)ccc34)c(F)cc2Cl)nn1`, the viability, T/C (compound 0.0316 µM) was 88.1% and 94.1%; the viability, T/C (compound 0.1 µM) was 105% and 99%; the viability, T/C (compound 0.316 µM) is 80.7% and 76.8%; the viability, T/C (compound 1 µM) is 66.4% and 61.3%; the viability, T/C (compound 3.16 µM) was 47.2% and 38.6%; the viability, T/C (compound 10 µM) is 35.5% and 29.1%. The IC50 (curve of compound) was 2500 nM and 1710 nM.
Consider `COc1cccc2c1C(=O)c1c(O)c3c(c(O)c1C2=O)CC(O)(C(=O)CO)CC3OC1CC(N)C(O)C(C)O1` (stereo not given), for which the viability, T/C is 57.2% and 67.1% (compound 0.0316 µM); 65.7% and 52.3% (compound 0.1 µM); 44.2% and 30.3% (compound 0.316 µM); 32.1% and 27% (compound 1 µM); 28.3% and 26.7% (compound 3.16 µM); 30.9% and 26% (compound 10 µM). The IC50 (curve of compound) is 215 nM and 113 nM.
As for `Nc1ccn(C2OC(CO)C(O)C2(F)F)c(=O)n1` (stereo not given), the viability, T/C (compound 0.0316 µM) is 73.9% and 72.8%; the viability, T/C (compound 0.1 µM) is 60.1% and 44.8%; the viability, T/C (compound 0.316 µM) was 44.6% and 38%; the viability, T/C (compound 1 µM) was 41.9% and 46.5%; the viability, T/C (compound 3.16 µM) is 41.6% and 39.7%; the viability, T/C (compound 10 µM) was 36.3% and 40.9%. The IC50 (curve of compound) is 221 nM and 79.5 nM.
Take `O=C(c1cc(Cc2n[nH]c(=O)c3ccccc23)ccc1F)N1CCN(C(=O)C2CC2)CC1`: the viability, T/C runs as follows: (compound 0.0316 µM) 99% and 103%; (compound 0.1 µM) 94% and 98.7%; (compound 0.316 µM) 102% and 87.7%; (compound 1 µM) 102% and 105%; (compound 3.16 µM) 80.1% and 94%; (compound 10 µM) 81.2% and 78.8%. Also, the IC50 (curve of compound) is above 10000 nM.
Regarding `O=c1[nH]cc(F)c(=O)[nH]1`, the viability, T/C was 101% and 102% (compound 0.0316 µM); 95.5% and 95.8% (compound 0.1 µM); 91.1% and 85.6% (compound 0.316 µM); 98% and 85.2% (compound 1 µM); 65.5% and 77.1% (compound 3.16 µM); 90.2% and 74.7% (compound 10 µM). Moreover, for the setting “curve of compound”, the IC50 is above 10000 nM.

The viability, T/C is the result in the treated group divided by that in the control group, in per cent. For orientation: IC50 means the concentration at which inhibition is half-maximal.
